One compound from patent US10106577B2, “Agonists of neurotrophin receptors and their use as medicaments” (BIONURE FARMA, S.L., priority 2010, dated 2018) can be followed below.

Data set [1] can be described thus: PAMPA model of passive BBB permeability. It is filed as in vitro ADME. Particulars: passive transport. As for the experimental part: PAMPA is used as an in vitro model of passive BBB permeability. An artificial membrane immobilized on a filter is placed between a donor and acceptor compartment. At the start of the test, a drug is introduced in the donor compartment. Following the permeation period, the concentration of the drug in the donor and acceptor compartments are measured using UV spectroscopy. Therefore the permeability of any compound with a UV chromophore can be determined by this method.
The tested compound stock solutions were diluted 200-fold in universal buffer at pH 7.4 and added to the donor wells. The filter membrane was coated with PBL in dodecane and the acceptor well was filled with pH 7.4 buffer. The acceptor filter plate was carefully put on the donor plate to form a ‘sandwich’ (consisting of the aqueous donor with test the compound on the bottom, an artificial lipid membrane in the middle, and an aqueous acceptor on the top). The test compound diffused from the donor well through the lipid membrane and into the acceptor well. The ‘sandwich’ was left undisturbed for 18 hrs while the permeation occurred. The concentration of the test compound in the acceptor, the donor, and the reference wells was determined using the UV plate reader. Effective permeability (Pe) of each compound was calculated by using the pION PSR4p software. Samples were analyzed in triplicate and the average of the three runs was reported. Quality control standards were run with each sample set to monitor the consistency of the analysis set.

For data set [2], the system named is retinal ganglion cells (RGC). Briefly: Glaucoma model, count of retinal ganglion cells. The format is in vivo, Sprague Dawley rats. How it is done: 12 Sprague Dawley rats (4 months of age) were anesthetized with […] and subjected to hypertonic saline solution injection into the episcleral vein of the right eye. Intraocular pressure (IOP) was measured before the operation and was monitored one time a week using a TonoLab for 7 weeks. Treatment with G79 was begun one week after glaucoma induction by topical application at the conjunctive. Two different experiments were performed.
In the first experiment, G79 was dissolved into physiological solution and was used at two different concentration (200 μg/ml and 400 μg/ml). NGF was used as positive control (200 μg/ml) and the physiological solution, used to dissolve all the molecules, was subministered as placebo. The animals were divided into 4 groups (3 animals in each group): glaucoma-G79 200 μg/ml; glaucoma-G79 […]; glaucoma-NGF; glaucoma-placebo. The left eye was used as the control without glaucoma. In both experiments, seven weeks after glaucoma induction, animals were sacrificed by overdose of anaesthetic and their eyes were taken and fixed in 4% of PFA. The eyes were included in paraffin and cut into 20 μm sections to be used for histological studies (hematoxilin-eosin staining). The cell count of the number of retinal ganglion cells (RGC) was performed randomly in ten different fields for each eye.
Rats were injected with a hypertonic solution in the eye that induced high intraocular pressure for five weeks. Animals were treated with eye drops of NGF ([…]), G79 ([…]) or placebo every day for five weeks. Animals with glaucoma and treated with placebo (saline) have a significant decrease in the number of retinal ganglion cells compared with control.
In the second experiment, G79 at the concentration of 200 μg/ml was used. The objective of this second experiment was to compare the efficacy of G79 to Timolol, the most common therapy for glaucoma that works by decreasing the intraocular pressure. Also in this experiment, a combination treatment with G79 and Timolol was performed. […]

The subject of data set [3] is iNOS. Briefly: Neuroinflammation in vitro model, organotypic cerebellar culture challenged with LPS, real-time PCR. The conditions noted are these: G79 100 ng/ml pre-treatment; 24 h after the challenge with LPS. It is filed as cell-based, mice. The text has this:
Neonates mice (day 8 after birth (P8)) were decapitated after anaesthetic IP injection and whole brains were removed aseptically. Cerebellum was separated from the rest of the brain and placed on a metal vibratome plate. Once the cerebellum was attached to the surface of the plate, 400 μm sagittal sections were cut using the vibratome. The slices were then transferred with a plastic Pasteur pipette to a cell culture plate containing an organotypic culture medium (5% CO2 in 50% basal medium with Earle's salt, 25% Hank's buffered salt solution, 25% inactivated horse serum, 5 mg/ml glucose, 0.25 mM L-glutamine and 25 μg/ml penicillin/streptomycin). After separating and isolating each slice, the cerebellar slices were then transferred to 6-well plates (3 slices for each well) containing a 30 mm culture plate insert with 0.4 μm pores (Millipore) and 1 ml full culture medium, pre-conditioned by incubation for at least 2 hours at 37° C., and 5% CO2 was added into each well below the insert. […]
Organotypic slices collected from the LPS stimulation experiment were homogenized in RNA lysis buffer. […] Primers and target-specific fluorescence-labeled TaqMan probes were purchased from Applied Biosystems (TaqMan Gene Expression assays). […] The expression of the gene tested was quantified relative to the level of the housekeeping gene GAPDH.

For `CC(C)CN(CC(=O)N(CCCN1CCCC1=O)CC(N)=O)C(=O)CNCCc1ccccc1F` [Compound G79, [N-(2-(2′-Fluorophenyl)ethyl)glycyl]-[N-(2-methylpropyl)glycyl]-N-[3-(2′-oxopyrrolidinyl)propyl]glycinamide], in data set [1], the “crossing the BBB in the PAMPA model (in words)” value is on record as “unable to cross the BBB in the PAMPA model”. Further, the “protection of retinal ganglion cells (number of RGC vs glaucoma-placebo)” value in data set [2] (first experiment, eye drops, NGF 200, G79 200 and 400 μg/ml) is “significant protection of the ganglion cells”. In addition, the “protection of RGCs by the combination treatment” value in data set [2] (second experiment, G79 200 μg/ml in combination with Timolol) is on record as “did not exert additive effect in protecting RGCs”. Besides, the “expression of iNOS compared to placebo pre-treated samples” value in data set [3] is given as “decrease in the expression of iNOS”.
